Laboratory results from PMC6331899, “Soluble Epoxide Hydrolase Inhibitory Activity of Selaginellin Derivatives from Selaginella tamariscina” (Molecules, 2015).

Tests used:
tyrosinase = test: Tyrosinase inhibition; type: biochemical; settings: triplicate
[1] = biological target: T1, Soluble epoxide hydrolases (human recombinant) (Homo sapiens, UniProt P34913); test: biochemical; settings: triplicate; for inhibition at 100 µM: PHOME substrate, read-out: Inhibitory Rate at 100 μM (%) sEH; for IC50: PHOME hydrolysis, pH 7.0, 37 °C, read-out: sEH IC50
T1 construct: purchased Cayman (Ann Arbor, MI, USA) 10011669
T1 sequence (P34913 1-555): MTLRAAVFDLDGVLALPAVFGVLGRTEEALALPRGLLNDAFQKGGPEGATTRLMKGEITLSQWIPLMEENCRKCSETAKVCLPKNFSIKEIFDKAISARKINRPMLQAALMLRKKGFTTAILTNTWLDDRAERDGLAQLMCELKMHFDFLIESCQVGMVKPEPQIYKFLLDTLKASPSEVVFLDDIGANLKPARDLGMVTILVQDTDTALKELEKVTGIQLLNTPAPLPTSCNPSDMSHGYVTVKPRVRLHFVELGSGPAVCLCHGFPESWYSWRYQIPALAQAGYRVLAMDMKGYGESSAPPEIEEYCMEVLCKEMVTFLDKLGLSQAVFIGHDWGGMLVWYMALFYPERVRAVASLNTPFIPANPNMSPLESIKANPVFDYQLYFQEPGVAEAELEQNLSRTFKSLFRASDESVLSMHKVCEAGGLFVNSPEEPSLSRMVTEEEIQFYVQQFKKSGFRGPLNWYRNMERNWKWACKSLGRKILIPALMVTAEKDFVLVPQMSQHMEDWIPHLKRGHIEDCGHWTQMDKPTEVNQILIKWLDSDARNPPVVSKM
Protocol: To evaluate the binding mode between sEH and the inhibitors, a kinetic study was performed using various inhibitors and substrate concentrations.
NMR spectra was obtained on Bruker Advance 600 and 300 MHz (Bruker; Rheinstetten, Germany) spectrometer. Column chromatography was performed using silica gel (Kieselgel 60; 70–230; and 230–400 mesh; Merck; Darmstadt, Germany) and YMC RP-18 resins. Thin layer chromatography (TLC) was performed using pre-coated silica-gel 60 F254 and RP-18 F254S plates (both 0.25 mm; Merck; Darmstadt, Germany). Spots were visualized by spraying with 10% aqueous H2SO4 solution followed by heating. Methanol; acetonitrile (Sigma-Aldrich; St. Louis, MO, USA) and trifluoroacetic acid (Alfa Aesar; Ward Hill, MA, USA) used in this study were of HPLC grade and the distilled water was prepared by the ultra-pure water manufacturing device (Optimos; Sinhan Science Tech, Daejeon, Korea). […] The quantitative analysis for three selaginellins was carried out on Optimapak C18 (250 mm × 4.6 mm I.D.; 5 μm) column.

sEH = biological target: T2, sEH (Homo sapiens, UniProt P34913); test: sEH kinetic analysis (Lineweaver-Burk, secondary plot); type: biochemical; settings: for sEH inhibition type: Lineweaver-Burk plots; for Ki: secondary re-plot of slope vs [I], Equation (3)
T2 construct: purchased Cayman (Ann Arbor, MI, USA) 10011669
T2 sequence (P34913 1-555): T1 sequence (P34913 1-555)
Protocol: To evaluate the inhibitory activity of compounds 1–3 on sEH, their hydrolysis effects on the formation of 6-methoxy-2-naphthaldehyde from (3-phenyl-oxiranyl)-acetic acid cyano-(6-methoxy-naphthalen-2-yl)-methyl ester (PHOME) were evaluated by fluorometric determination using an excitation wavelength of 330 nm and emission wavelength of 465 nm. […]. To evaluate the binding mode between sEH and the inhibitors, a kinetic study was performed using various inhibitors and substrate concentrations.
Secondary plots can be constructed from (3) Slope=km/Vmax+Km[I]/VmaxKi

| Structure (SMILES) | Inhibitory Rate at 100 μM (%) Tyrosinase (tyrosinase) [%] | inhibition at 100 µM [1] [%] | IC50 [1] [µM] | sEH inhibition type (sEH) | Ki (sEH) [µM] |
| --- | --- | --- | --- | --- | --- |
| Cc1ccc(-c2ccc(O)cc2)c(C(=C2C=CC(=O)C=C2)c2ccc(O)cc2)c1C#Cc1ccc(O)cc1 [Compound 2, selaginellin B] | 32.5 ± 1.5 | 89.3 ± 2.1 | 8.2 ± 2.2 | Noncompetitive | 6.8 |
| O=C1C=CC(=C(c2ccc(O)cc2)c2c(C#Cc3ccc(O)cc3)cccc2-c2ccc(O)cc2)C=C1 [Compound 1, selaginellin A] | 36.2 ± 2.1 | 92.5 ± 0.8 | 3.1 ± 0.1 | Noncompetitive | 2.9 |
| O=C1C=CC(=C(c2ccc(O)cc2)c2c(-c3ccc(O)cc3)ccc(CO)c2C#Cc2ccc(O)cc2)C=C1 [Compound 3, selaginellin] | 40.1 ± 3.2 | 94.5 ± 5 | 4.2 ± 0.2 | Noncompetitive | 1.8 |
